In paper PMC10159843, “Babesia duncani multi-omics identifies virulence factors and drug targets” (Nature Microbiology, 2023):
Read-outs that look alike come from different tables or passages of the source.

What was measured:
[1] = test system: B. duncani; experiment: microbe, parasite or virus in culture; format: cell-based, Babesia duncani
[2] = test system: B. duncani; conditions: continuous in vitro culture in human erythrocytes; cited from earlier work
[3] = target: B. duncani DHFR-TS (Babesia duncani, UniProt A0AAD9UQZ8); format: biochemical
B. duncani DHFR-TS, sequence (A0AAD9UQZ8 1-514): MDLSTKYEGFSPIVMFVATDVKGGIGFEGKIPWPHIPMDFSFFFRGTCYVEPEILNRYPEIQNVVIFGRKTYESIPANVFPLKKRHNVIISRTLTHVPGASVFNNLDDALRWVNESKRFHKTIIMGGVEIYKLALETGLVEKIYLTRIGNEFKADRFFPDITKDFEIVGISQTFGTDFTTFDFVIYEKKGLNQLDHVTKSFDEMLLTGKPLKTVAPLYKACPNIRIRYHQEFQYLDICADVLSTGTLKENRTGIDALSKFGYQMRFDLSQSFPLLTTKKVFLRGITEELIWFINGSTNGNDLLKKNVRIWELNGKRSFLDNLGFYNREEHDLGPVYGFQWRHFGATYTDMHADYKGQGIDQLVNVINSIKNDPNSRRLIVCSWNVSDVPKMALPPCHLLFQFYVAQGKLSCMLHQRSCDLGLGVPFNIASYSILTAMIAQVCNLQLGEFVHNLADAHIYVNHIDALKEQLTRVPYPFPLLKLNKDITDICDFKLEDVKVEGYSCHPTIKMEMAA

[4] = target: B. microti DHFR-TS (Babesia microti, UniProt A0A1R4AAV1); format: biochemical
B. microti DHFR-TS, sequence (A0A1R4AAV1 1-502): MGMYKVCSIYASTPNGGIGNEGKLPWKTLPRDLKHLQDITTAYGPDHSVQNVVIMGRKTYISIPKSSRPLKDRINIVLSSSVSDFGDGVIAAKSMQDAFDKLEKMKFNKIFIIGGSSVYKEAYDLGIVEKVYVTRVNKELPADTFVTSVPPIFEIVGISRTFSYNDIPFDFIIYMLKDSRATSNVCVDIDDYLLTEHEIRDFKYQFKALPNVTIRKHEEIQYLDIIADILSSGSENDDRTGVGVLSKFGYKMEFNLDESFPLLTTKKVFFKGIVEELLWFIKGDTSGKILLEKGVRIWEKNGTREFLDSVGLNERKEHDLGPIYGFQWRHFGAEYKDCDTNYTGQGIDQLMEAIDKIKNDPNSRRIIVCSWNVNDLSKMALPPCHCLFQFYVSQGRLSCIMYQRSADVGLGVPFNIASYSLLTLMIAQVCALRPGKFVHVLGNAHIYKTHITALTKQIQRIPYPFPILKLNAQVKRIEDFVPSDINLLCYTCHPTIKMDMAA

[5] = MTT cytotoxicity on HeLa cells; format: cell-based, human; conditions: human, HeLa cells, read-out: HeLa LC50
Method: (§1) HeLa, HepG2, HEK and HCT116 cell lines were obtained from the American Type Culture Collection and maintained in Dulbecco’s modified Eagle’s medium (Invitrogen 11995-065) containing 25 mM glucose, 1 mM sodium pyruvate and supplemented with 5 mM HEPES, 10% FBS and penicillin-streptomycin (50 U ml^−1 penicillin, 50 µg ml^−1 streptomycin). An estimated 20,000 cells per well were seeded in a 96-well tissue culture plate and allowed to adhere. After 24 h, cells were treated with either vehicle alone (0.1% dimethylsulfoxide) or vehicle containing different concentrations of the target drugs using a 2-fold serial dilution starting at 10 mM. Dimethylsulfoxide at 10% was used as a positive control. Cells were incubated at 37 °C for 72 h, after which each well was incubated with 0.5 mg ml^−1 of MTT reagent (Cayman Chemical, 10009591) for 4 h in the dark at 37 °C. Following addition of 100 µl dimethylsulfoxide to each well, absorbance was measured at optical density (OD)590 nm using Spectra max plate reader. From the obtained OD values, percent cell viability was calculated by normalizing to the mean of 10% dimethylsulfoxide wells (set as 100% toxicity) and the mean of the vehicle control wells (set as 0% toxicity). Dose-response curves were plotted using GraphPad Prism v9.1.2

[6] = MTT cytotoxicity on HepG2 cells; format: cell-based, human; conditions: human, HepG2 cells, read-out: HepG2 LC50
Method: as §1

[7] = MTT cytotoxicity on HEK293 cells; format: cell-based, human; conditions: human, HEK293 cells, read-out: HEK293 LC50
Method: as §1

[8] = MTT cytotoxicity on HCT116 cells; format: cell-based, human; conditions: human, HCT116 cells, read-out: HCT LC50
Method: as §1

[9] = test system: HeLa; experiment: MTT cytotoxicity on HeLa cells; format: cell-based, human; conditions: 72 h, read-out: HeLa LC50
Method: as §1

[10] = test system: HepG2; experiment: MTT cytotoxicity on HepG2 cells; format: cell-based, human; conditions: 72 h, read-out: HepG2 LC50
Method: as §1

[11] = test system: HEK293; experiment: MTT cytotoxicity on HEK293 cells; format: cell-based, human; conditions: 72 h, read-out: HEK293 LC50
Method: as §1

[12] = test system: HCT116; experiment: MTT cytotoxicity on HCT116 cells; format: cell-based, human; conditions: 72 h, read-out: HCT LC50
Method: as §1

[13] = test system: human cell lines; experiment: In vitro therapeutic index of antifolates against human cell lines; format: cell-based; conditions: human cell lines versus B. duncani IC50
Method: Drug efficacy against B. duncani in vitro was determined using the SYBR Green assay as previously described. Briefly, a culture of B. duncani-infected human erythrocytes at 0.1% parasitemia and 5% haematocrit was maintained for 60 h in vitro in a 96-well plate in the absence or presence of varying concentrations of the drug of interest at concentrations ranging between 0.6 nM and 10 µM. An equal volume of lysis buffer (0.008% saponin, 0.08% Triton X-100, 20 mM Tris-HCl (pH 7.5) and 5 mM EDTA) containing SYBR Green-I (0.01%) was added to each well and the plate incubated at 37 °C for 1 h in the dark. Fluorescence counts in each well were measured at 480 nm (excitation) and 540 nm (emission) using a BioTek Synergy Mx microplate reader and background fluorescence from control wells containing uninfected RBCs was subtracted. A dose-response curve representing the fluorescence counts against the logarithm of the drug concentration was fitted by nonlinear regression and used to determine the IC50 of each drug. Analysis was conducted using GraphPad Prism 9.2.1. For each drug, two independent experiments, each with biological triplicates, were conducted. Data are shown as mean ± s.d. […]

[14] = test system: BdDHFR-TS; experiment: Inhibition of DHFR enzymatic activity of recombinant BdDHFR-TS; format: biochemical, B. duncani; conditions: 0.1 μM enzyme, 300 μM DHF, 300 μM NADPH
Method: (§2) The IC50 was determined from a sigmoidal dose-response curve using GraphPad Prism v9.1.2. […]
(§3) denatured (2 X 20 min in 0.5N NaOH; 1.5 M NaCl) and neutralized (2 X 20 min in 0.5 M Tris-HCl, pH 7.5; 1.5 M NaCl). Southern blotting was done on nylon membrane, positively charged
(§4) (Cat. No. 1417240, Roche) using 10X SSC and followed by UV crosslinking of transferred DNA.
(§5) The membrane was hybridized overnight at 26 °C with the telomere probe and then washed twice for 5 min each in 2X SSC and for 20 min each in 0.5X SSC at 26°C. Bound probe was detected with disodium-2-chloro-5(4 methoxyspiro (1,2-dioxetane-3.2´-[5-chloro]tricycle[3.3.1.1.3.7] decan)-4-yl)-1-phenyl phosphate (CDP-StarTM, Cat. No.12041677001, Roche) according to the manufacturer’s instructions. The membrane was visualized using an Amersham ImageQuant 800 system (GE Healthcare Bio-Science AB, Uppsala, Sweden).
(§6) Cloning, Expression, and Purification of recombinant B. duncani and B. microti DHFR-TS […]
(§7) duncani (BdDHFR-TS) and B. microti (BmDHFR-TS) were cloned into pMAL-c4x by GenScript USA Inc. Both enzymes were expressed as fusion proteins with N’-terminal maltose-binding protein (MBP) tag. Constructs of pMAL-c4x-BdDHFR-TS and pMAL-c4x-BmDHFR-TS were transformed by heat shock into E. coli BL-21(DE3). E. coli BL-21(DE3) harboring pMAL-c4x-DHFR-TS was grown overnight in 2 ml LB ampicillin (100 µg/mL). […]

[15] = test system: BmDHFR-TS; experiment: Inhibition of DHFR enzymatic activity of recombinant BmDHFR-TS; format: biochemical, B. microti; conditions: 0.1 μM enzyme, 300 μM DHF, 300 μM NADPH
Method: as §2, §3, §4, §5, §6, §7

For O=C1C(O)=C([C@H]2CC[C@H](c3ccc(Cl)cc3)CC2)C(=O)c2ccccc21 [Atovaquone], the IC50 ([1]; Babesia duncani, Erythrocyte, read-out: IC50 of atovaquone, parental isolate WA1) is given as 0.072 µM and the “susceptibility of B. duncani” value [2] is given as “low susceptibility”.

For NC(=O)C1=CN([C@@H]2O[C@H](COP(=O)(O)OP(=O)(O)OC[C@H]3O[C@@H](n4cnc5c(N)ncnc54)[C@H](OP(=O)(O)O)[C@@H]3O)[C@@H](O)[C@H]2O)C=CC1 [NADPH], the Vmax [3] was 9.8 ± 2.1 μmol · min^-1 ×10^4, the kcat [3] was 0.4 ± 0.1 s⁻¹ and the Km ([3]; complementary ligand at 300 μM) was 32.9 ± 1 µM. The Vmax [4] was 10.1 ± 1.6 μmol · min^-1 ×10^4, the kcat [4] was 1.7 ± 0.3 s⁻¹ and the Km ([4]; complementary ligand at 300 μM) was 27.3 ± 0.2 µM.

Work on CCc1nc(N)nc(N)c1-c1ccc(Cl)cc1 [Pyrimethamine] yielded an IC50 ([1]; Babesia duncani, Erythrocyte, 60 h, read-out: B. duncani IC50) of 0.94 ± 0.017 µM, a CC50 at 72 h [5] greater than 900 µM and a CC50 at 72 h [6] of 1690 µM. For the same compound, the CC50 at 72 h [7] was 500 µM and the CC50 at 72 h [8] was greater than 30 µM.

Compound CC1(C)N=C(N)N=C(N)N1OCCCOc1cc(Cl)c(Cl)cc1Cl [WR-99210] has an IC50 ([1]; read-out: B. duncani IC50) of 0.00058 µM, a CC50 [9] greater than 900 µM and a CC50 [10] of 1100 µM. The CC50 [11] was 1000 µM, the CC50 [12] was 1050 µM and the “TI (therapeutic index)” value [13] was greater than 15K. For the same compound, the IC50 [14] was 0.0039 µM and the IC50 [15] was 0.0068 µM.

In the case of CC[C@H]1OC(=O)[C@H](C)[C@@H](O[C@H]2C[C@@](C)(OC)[C@@H](O)[C@H](C)O2)[C@H](C)[C@@H](O[C@@H]2O[C@H](C)C[C@H](N(C)C)[C@H]2O)[C@](C)(O)C[C@@H](C)CN(C)[C@H](C)[C@@H](O)[C@]1(C)O [azithromycin], the “susceptibility of B. duncani” value [2] is given as “low susceptibility”.

In the case of CCC[C@@H]1C[C@@H](C(=O)N[C@@H]([C@H]2O[C@H](SC)[C@H](O)[C@@H](O)[C@H]2O)[C@H](C)Cl)N(C)C1 [clindamycin], the “susceptibility of B. duncani” value [2] is listed as “low susceptibility”.

In the case of C=C[C@H]1C[N@@]2CC[C@H]1C[C@H]2[C@H](O)c1ccnc2ccc(OC)cc12 [quinine], the “susceptibility of B. duncani” value [2] is listed as “low susceptibility”.
